How the values were obtained:
[1] = system: cerebral cortical neurons; assay: Neurite outgrowth assay (axon outgrowth promoting effect); type: cell-based, rat; settings: for average length of axons: 72 hours after cell seeding
From the text: Cerebral cortical neurons were collected and cultured by a conventional method. Cerebral cortex was dissected from a fetus of a Sprague-Dawley (SD) rat (18th day of pregnancy) and recovered in ice-cooled Dulbecco's Modified Eagle Medium (DMEM) containing 10% fetal bovine serum (FBS) and 1% penicillin/streptomycin. The pia mater and blood vessels were removed, and the remaining cerebral cortex was transferred to DMEM (containing 1% penicillin/streptomycin and no FBS) and cut into small pieces having a size of 1 mm by surgical scissors. Papain (final concentration, 2 mg/ml) was added to the cell mixture, and the mixture was allowed to react at 37° C. for 30 minutes. DNase I (70 U/ml) was added to the reaction mixture and reaction was carried out for 30 seconds. Then, DMEM containing 10% FBS and 1% penicillin/streptomycin was added to terminate the reaction. The cell mixture was centrifuged at 800 rpm, the residue was re-suspended in DMEM containing 10% FBS and 1% penicillin/streptomycin, and the suspension was seeded on a dish coated with poly-L lysine (PLL). At 4 hours after the cell seeding, the medium was replaced with Neurobasal medium (containing 10% B27 supplement and 1% penicillin/streptomycin).
The cerebral cortical neurons (Example 1-1) were seeded, and the drug was added in different concentrations at 24 hours. The concentrations of methylcobalamin added were 1, 10, and 100 nM and 1, 10, and 100 μM. At 72 hours after the cell seeding, immunofluorescent staining was performed using an anti-TuJ1 antibody, and the lengths of axons (the longest neurite length per neuron) were measured. The measurement was performed on cells that were not in contact with other cells. In each evaluation, at least 30 neural axons were measured, and the mean of the obtained values was calculated and designated as a measured value.

[2] = system: Mouse macrophage cell line J774A.1; assay: Immunohistological evaluation of iNOS-positive (M1) and Arg1-positive (M2) macrophages; type: cell-based; settings: for percentage of M2 macrophages (percentage of Arg1-positive cells): 72 hours; for percentage of M1 macrophages (percentage of iNOS-positive cells): 24 hours
Method: Mouse macrophage cell line J774A.1 (JCRB9108) was purchased from JCRB Cell Bank (Laboratory of Cell Cultures), Osaka, Japan. Cells were cultured in DMEM containing 10% FBS and 1% penicillin/streptomycin.
The J774A.1 cells (Example 5-1) were seeded on a dish having a diameter of 6 cm. After 4 days, cells were fixed with 4% PFA for 20 minutes. Blocking was performed for 30 minutes, and the cells were allowed to react with primary antibodies at 4° C. overnight. The cells were further allowed to react with a secondary antibody at room temperature for 1 hour so that the nuclei were labeled with DAPI. To detect the M1 marker iNOS, LPS (100 ng/ml) and methylcobalamin were added at 24 hours before fixing the cells. To detect the M2 marker Arg1, IL-4 (20 ng/ml) and methylcobalamin were added at 72 hours before fixing the cells.
The primary antibodies used were a rabbit anti-iNOS monoclonal antibody (Abeam) and a rabbit anti-Arg1 polyclonal antibody (Santa Cruz). The secondary antibody used was an Alexa 488-labeled goat anti-rabbit IgG antibody (Life Technologies) or an Alexa 568-labeled goat anti-rabbit IgG antibody (Life Technologies).

[3] = system: Akt-mTOR pathway; assay: Western blot of Akt, 4EBP1 and S6K phosphorylation (mechanism of macrophage induction); type: cell-based, mouse; settings: 30 minutes
Method: The J774A.1 cells (Example 5-1) were seeded on a dish having a diameter of 6 cm. After 4 days, proteins were collected using a cell lysis buffer containing a cocktail of protease inhibitors. The protein concentration was measured by BCA assay. Then, 50 μg of each sample was subjected to SDS-PAGE, and the electrophoresed proteins were transferred to a polyvinylidene difluoride membrane. The membrane was blocked with a blocking buffer for 1 hour, and then the proteins were allowed to react with primary antibodies at 4° C. overnight. The proteins were further allowed to react with a secondary antibody at room temperature for 1 hour and detected using ECL Western Blotting Detection System. To detect the M1 markers iNOS and IL-1β, lipopolysaccharide (LPS) (100 ng/ml) and methylcobalamin were added at 24 hours before collecting the proteins. To detect the M2 markers Arg1 and CD206, IL-4 (20 ng/ml) and methylcobalamin were added at 72 hours before collecting the proteins.
The mechanism of the macrophage induction (Example 5) by methylcobalamin was analyzed. Specifically, the analysis was carried out as follows. At 30 minutes after IL-4 and methylcobalamin (100 nM and 1 mM) were added, activation of Akt, 4EBP1, and S6K in the Akt-mTOR pathway (one of the major signaling pathways that induce M2 gene expression) was evaluated by Western blot. In the pathway, Akt phosphorylation occurs in response to an upstream signal, and 4EBP1 phosphorylation and S6K phosphorylation further occur through mTORC1 in the downstream. The S6K phosphorylation provides a negative feedback to the upstream of the signaling pathway. Western blot was performed as in Example 5-2, except that IL-4 (20 ng/ml), methylcobalamin, and RAD001 (200 nM) were added at 30 minutes before the proteins were collected, and the primary antibodies for detection were changed.

[4] = IL-4 20 ng/ml + MeCbl 100 nM, listed as methylcobalamin
[5] = IL-4 20 ng/ml + MeCbl 1 mM + RAD001 (200 nM)
[6] = IL-4 20 ng/ml + MeCbl 1 mM, listed as methylcobalamin

## C/C1=C2/[N-][C@H]([C@H](CC(N)=O)[C@@]2(C)CCC(=O)NC[C@@H](C)OP(=O)([O-])O[C@H]2[C@@H](O)[C@@H](n3cnc4cc(C)c(C)cc43)O[C@@H]2CO)[C@]2(C)N=C(/C(C)=C3N=C(/C=C4N=C1[C@@H](CCC(N)=O)C\4(C)C)[C@@H](CCC(N)=O)[C@]\3(C)CC(N)=O)[C@@H](CCC(N)=O)[C@]2(C)CC(N)=O.[CH3-].[Co+3] [MeCbl, methylcobalamin]
[1]; MeCbl 1 nM
  average length of axons: 67.2 µm
[1]; MeCbl 10 nM
  average length of axons: 71.2 µm
[1]; MeCbl 100 nM
  average length of axons: 75.2 µm
[1]; MeCbl 1 μM
  average length of axons: 79.9 µm
[1]; MeCbl 1 μM, listed as methylcobalamin
  average length of axons: significantly promoted
[1]; MeCbl 10 μM
  average length of axons: 86.4 µm
[1]; MeCbl 10 μM, listed as methylcobalamin
  average length of axons: significantly promoted
[1]; MeCbl 100 μM
  average length of axons: 66.2 µm
[1]; concentrations 1 nM to 100 μM tested
  methylcobalamin concentration at peak of axon outgrowth promotion: 10 µM
[2]; IL-4 20 ng/ml + MeCbl 1 nM
  percentage of M2 macrophages (percentage of Arg1-positive cells): 10.90%
[2]; IL-4 20 ng/ml + MeCbl 10 nM
  percentage of M2 macrophages (percentage of Arg1-positive cells): 18.57%
[2]; IL-4 20 ng/ml + MeCbl 100 nM
  percentage of M2 macrophages (percentage of Arg1-positive cells): 18.95%
[2]; IL-4 20 ng/ml + MeCbl 1 μM
  percentage of M2 macrophages (percentage of Arg1-positive cells): 19.32%
[2]; IL-4 20 ng/ml + MeCbl 10 μM
  percentage of M2 macrophages (percentage of Arg1-positive cells): 15.24%
[2]; IL-4 20 ng/ml + MeCbl 100 μM
  percentage of M2 macrophages (percentage of Arg1-positive cells): 10.61%
[2]; IL-4 20 ng/ml + MeCbl 1 mM
  percentage of M2 macrophages (percentage of Arg1-positive cells): 9.49%
[2]; IL-4 + 10 nM to 1 μM methylcobalamin
  proportion of cells positive for the M2 marker Arg1 as compared to IL-4 alone: significantly increased
[2]; LPS 100 ng/ml + MeCbl 1 nM
  percentage of M1 macrophages (percentage of iNOS-positive cells): 16.64%
[2]; LPS 100 ng/ml + MeCbl 10 nM
  percentage of M1 macrophages (percentage of iNOS-positive cells): 9.57%
[2]; LPS 100 ng/ml + MeCbl 100 nM
  percentage of M1 macrophages (percentage of iNOS-positive cells): 7.26%
[2]; LPS 100 ng/ml + MeCbl 1 μM
  percentage of M1 macrophages (percentage of iNOS-positive cells): 3.42%
[2]; LPS 100 ng/ml + MeCbl 10 μM
  percentage of M1 macrophages (percentage of iNOS-positive cells): 11.45%
[2]; LPS 100 ng/ml + MeCbl 100 μM
  percentage of M1 macrophages (percentage of iNOS-positive cells): 10.34%
[2]; LPS 100 ng/ml + MeCbl 1 mM
  percentage of M1 macrophages (percentage of iNOS-positive cells): 17.57%
[2]; LPS + 10 nM to 100 μM methylcobalamin
  proportion of cells positive for the M1 marker iNOS as compared with LPS alone: significantly decreased
[2]; immunofluorescent staining
  methylcobalamin concentration at peak of switch from M1 to M2: around 100 nM
[3]; IL-4 20 ng/ml + MeCbl 100 nM
  p-4EBP1/4EBP1: 4.94
  p-Akt/Akt: 3.58
  p-S6K/S6K: 2.65
[3]; [4]
  p-4EBP1/4EBP1: enhanced
  p-S6K/S6K: enhanced
[3]; [5]
  p-4EBP1/4EBP1: 2.78
  p-Akt/Akt: 3.78
  p-S6K/S6K: 0.33
[3]; IL-4 20 ng/ml + MeCbl 1 mM
  p-4EBP1/4EBP1: 6.08
  p-Akt/Akt: 2.59
  p-S6K/S6K: 3.12
[3]; [6]
  p-4EBP1/4EBP1: activated
  p-Akt/Akt: decreased
  p-S6K/S6K: activated

Reference: US12029751B2, “Therapeutic agent for nervous system disease” (OSAKA UNIVERSITY, priority 2017, dated 2024)
